Source: PMC8666671, “Fine-tuning spermidine binding modes in the putrescine binding protein PotF” (The Journal of Biological Chemistry, 2021)
Residue numbers refer to the chain shown, from its start. Where “and” joins values, the source holds several entries; their conditions need not be identical. Equal entries are not always repeated.

What was measured:
Format in all cases: binding
PotF_Abox = molecular target: T1, PotF_Abox (Escherichia coli, UniProt P31133, F276W); test: ITC, PotF_Abox (F276W); conditions: for n: ITC binding stoichiometry; for n / Kd / ΔG / ΔH / −TΔS: 293 K, PotF_Abox; for Kd: 50 mM Tris pH 8, 300 mM NaCl, biological triplicates
T1 construct: without the N-terminal signal peptide; made in house; host or cells: E. coli BL21 (DE3)
T1 sequence (P31133 27-370 F276W): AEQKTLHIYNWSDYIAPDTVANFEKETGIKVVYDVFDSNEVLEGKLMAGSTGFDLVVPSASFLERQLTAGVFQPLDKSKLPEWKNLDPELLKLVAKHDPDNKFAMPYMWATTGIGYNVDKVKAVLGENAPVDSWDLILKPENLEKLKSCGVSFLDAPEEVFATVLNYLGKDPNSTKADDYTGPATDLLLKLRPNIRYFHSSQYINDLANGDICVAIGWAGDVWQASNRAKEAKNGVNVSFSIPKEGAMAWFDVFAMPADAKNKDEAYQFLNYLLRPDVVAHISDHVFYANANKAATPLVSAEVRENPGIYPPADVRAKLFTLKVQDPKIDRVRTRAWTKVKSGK
Procedure: (§1) Ligands were always freshly prepared in the exact same buffer as was used for the size exclusion run. Samples were degassed, and temperature was equilibrated using a degassing station (TA Instruments). About 400 μl protein sample of different concentrations (Table S5) depending on affinity was transferred into the sample cell of a nanoITC (TA Instruments), and 50 μl of about tenfold concentrated ligand solution was loaded into the injection needle. Multiple injection measurements were carried out at 293 K, 300 rpm stirring rate, and 250 s spacings between each 2 μl injection. The heat quantity past injection was determined by integration of the measured peaks. Every protein–ligand combination was measured as biological triplicate. Subtraction of heat of dilution measurements, peak integration, and one site binding fits were done with NanoAnalyze (TA Instruments). Reported errors are the errors between fits of the measured triplicates.

PotF_Dist = molecular target: T2, PotF_Dist (Escherichia coli, UniProt P31133, A182D/L348Q/S87Y); test: ITC, PotF_Dist (S87Y, A182D, L348Q); conditions: 293 K
T2 construct: without the N-terminal signal peptide; made in house; host or cells: E. coli BL21 (DE3)
T2 sequence (P31133 27-370 S87Y/A182D/L348Q): T1 sequence (P31133 27-370 F276W) with S61Y, A156D, W250F, L322Q
Procedure: as §1

PotF_Abox-A182D = molecular target: T3, PotF_Abox-A182D (Escherichia coli, UniProt P31133, A182D/F276W); test: ITC, PotF_Abox-A182D (F276W, A182D); conditions: for n: ITC binding stoichiometry; for n / Kd / ΔG / ΔH / −TΔS: 293 K, PotF_Abox-A182D; for Kd / ΔG / ΔH / −TΔS: ITC; for Kd: 50 mM Tris pH 8, 300 mM NaCl, biological triplicates
T3 construct: without the N-terminal signal peptide; made in house; host or cells: E. coli BL21 (DE3)
T3 sequence (P31133 27-370 A182D/F276W): T1 sequence (P31133 27-370 F276W) with A156D
Procedure: as §1

PotF/D–E39D–F88A–S247D = molecular target: T4, PotF/D–E39D–F88A–S247D (Escherichia coli, UniProt P31133, A182D/F276W/F88A/L348Q/S38T/S87Y); test: ITC, PotF/D–E39D–F88A–S247D; conditions: 293 K; for n: ITC binding stoichiometry; for ΔG / ΔH / −TΔS / Kd: ITC; for Kd: 50 mM Tris pH 8, 300 mM NaCl, biological triplicates
T4 construct: without the N-terminal signal peptide; made in house; host or cells: E. coli BL21 (DE3)
T4 sequence (P31133 27-370 S38T/S87Y/F88A/A182D/F276W/L348Q): T1 sequence (P31133 27-370 F276W) with S12T, S61Y, F62A, A156D, L322Q
Procedure: as §1

PotF/D–E39D–F88L–S247D = molecular target: T5, PotF/D–E39D–F88L–S247D (Escherichia coli, UniProt P31133, A182D/F276W/F88L/L348Q/S38T/S87Y); test: ITC, PotF/D–E39D–F88L–S247D; conditions: 293 K; for n: ITC binding stoichiometry; for ΔG / ΔH / −TΔS / Kd: ITC; for Kd: 50 mM Tris pH 8, 300 mM NaCl, biological triplicates
T5 construct: without the N-terminal signal peptide; made in house; host or cells: E. coli BL21 (DE3)
T5 sequence (P31133 27-370 S38T/S87Y/F88L/A182D/F276W/L348Q): T1 sequence (P31133 27-370 F276W) with S12T, S61Y, F62L, A156D, L322Q
Procedure: as §1

[1] = ITC, PotF_Abox compared with wildtype PotF
[2] = ITC, 50 mM Tris pH 8, 300 mM NaCl, biological triplicates

SMILES: NCCCCN [PUT, putrescine]
- n (PotF_Abox): 0.90 ± 0.03
- Kd (PotF_Abox; ITC): ~0.21 µM and 0.21 µM
- ΔG (PotF_Abox; ITC): -8.97 ± 0.10 kcal/mol
- ΔH (PotF_Abox; ITC): -22.25 ± 0.77 kcal/mol
- −TΔS (PotF_Abox; ITC): 13.28 ± 0.75 kcal/mol
- ΔΔH (PotF_Abox; [1]): +0.77 kcal/mol
- KD (PotF_Dist; [2]): abolishes association
- n (PotF_Abox-A182D): 0.91 ± 0.01
- Kd (PotF_Abox-A182D): ~83 µM and 83.2 µM
- ΔG (PotF_Abox-A182D): -5.45 ± 0.02 kcal/mol
- ΔH (PotF_Abox-A182D): -9.79 ± 0.09 kcal/mol
- −TΔS (PotF_Abox-A182D): 4.33 ± 0.08 kcal/mol
- decrease of PUT affinity (PotF_Abox-A182D; PotF_Abox-A182D compared with wildtype PotF): around 1200 fold
- n (PotF/D–E39D–F88A–S247D): 0.92 ± 0.04
- ΔG (PotF/D–E39D–F88A–S247D): -5.23 ± 0.02 kcal/mol
- ΔH (PotF/D–E39D–F88A–S247D): -5.21 ± 0.14 kcal/mol
- −TΔS (PotF/D–E39D–F88A–S247D): -0.02 ± 0.15 kcal/mol
- Kd (PotF/D–E39D–F88A–S247D): 126 ± 5.29 µM
- n (PotF/D–E39D–F88L–S247D): 0.90 ± 0.01
- ΔG (PotF/D–E39D–F88L–S247D): -4.97 ± 0.13 kcal/mol
- ΔH (PotF/D–E39D–F88L–S247D): -5.54 ± 0.73 kcal/mol
- −TΔS (PotF/D–E39D–F88L–S247D): 0.57 ± 0.86 kcal/mol
- Kd (PotF/D–E39D–F88L–S247D): 203 ± 43.1 µM

SMILES: NCCCCNCCCN [SPD, spermidine]
- n (PotF_Abox): 0.96 ± 0.06
- Kd (PotF_Abox; ITC): ~11 µM and 11.1 µM
- ΔG (PotF_Abox; ITC): -6.65 ± 0.04 kcal/mol
- ΔH (PotF_Abox; ITC): -6.25 ± 0.16 kcal/mol
- −TΔS (PotF_Abox; ITC): -0.40 ± 0.21 kcal/mol
- Δ(−TΔS) (PotF_Abox; [1]): +2.02 kcal/mol
- n (PotF_Dist; ITC binding stoichiometry): 0.91 ± 0.02
- ΔG (PotF_Dist; ITC): -5.48 ± 0.20 kcal/mol
- ΔH (PotF_Dist; ITC): -1.83 ± 0.08 kcal/mol
- −TΔS (PotF_Dist; ITC): -3.65 ± 0.28 kcal/mol
- KD (PotF_Dist; [2]): very low
- Kd (PotF_Dist; [2]): 88.2 ± 33.1 µM
- n (PotF_Abox-A182D): 0.91 ± 0.02
- Kd (PotF_Abox-A182D): ~3.1 µM and 3.13 µM
- ΔG (PotF_Abox-A182D): -7.39 ± 0.11 kcal/mol
- ΔH (PotF_Abox-A182D): -4.37 ± 0.20 kcal/mol
- −TΔS (PotF_Abox-A182D): -3.02 ± 0.15 kcal/mol
- n (PotF/D–E39D–F88A–S247D): 0.91 ± 0.01
- ΔG (PotF/D–E39D–F88A–S247D): -7.82 ± 0.06 kcal/mol
- ΔH (PotF/D–E39D–F88A–S247D): -4.75 ± 0.09 kcal/mol
- −TΔS (PotF/D–E39D–F88A–S247D): -3.07 ± 0.14 kcal/mol
- Kd (PotF/D–E39D–F88A–S247D): 1.48 ± 0.14 µM
- n (PotF/D–E39D–F88L–S247D): 0.93 ± 0.01
- ΔG (PotF/D–E39D–F88L–S247D): -7.35 ± 0.09 kcal/mol
- ΔH (PotF/D–E39D–F88L–S247D): -4.19 ± 0.06 kcal/mol
- −TΔS (PotF/D–E39D–F88L–S247D): -3.17 ± 0.10 kcal/mol
- Kd (PotF/D–E39D–F88L–S247D): 3.33 ± 0.53 µM
